According to the supplement of paper PMC10307832:

Columns and labels:
Assay in all cases: relative viability (nuclei count vs DMSO), 5 days (fraction); higher = more cells survive
Pictilisib + Trametinib = compound: CS(=O)(=O)N1CCN(Cc2cc3nc(-c4cccc5[nH]ncc45)nc(N4CCOCC4)c3s2)CC1 [Pictilisib] + CC(=O)Nc1cccc(-n2c(=O)n(C3CC3)c(=O)c3c(Nc4ccc(I)cc4F)n(C)c(=O)c(C)c32)c1 [Trametinib] (partner 0.02 µM)
Summary of the method: (§1)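 Relative viability is defined as nuclei in treated wells over nuclei in vehicle wells. Duplicate plates were run and medians reported. Lung cancer cell lines in 1536-well plates were dosed by pin tool one day after seeding, with one drug or with a fixed anchor-drug dose plus five library-drug doses (not always all listed) in √10 steps, and nuclei were counted after 5 days.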

Pictilisib + Luminespib = compound: CS(=O)(=O)N1CCN(Cc2cc3nc(-c4cccc5[nH]ncc45)nc(N4CCOCC4)c3s2)CC1 [Pictilisib] + CCNC(=O)c1noc(-c2cc(C(C)C)c(O)cc2O)c1-c1ccc(CN2CCOCC2)cc1 [Luminespib] (partner 0.01 µM)
Summary of the method: as §1

Pictilisib + Crizotinib = compound: CS(=O)(=O)N1CCN(Cc2cc3nc(-c4cccc5[nH]ncc45)nc(N4CCOCC4)c3s2)CC1 [Pictilisib] + C[C@@H](Oc1cc(-c2cnn(C3CCNCC3)c2)cnc1N)c1c(Cl)ccc(F)c1Cl [Crizotinib] (partner 1 µM)
Summary of the method: as §1

Pictilisib + Decitabine = compound: CS(=O)(=O)N1CCN(Cc2cc3nc(-c4cccc5[nH]ncc45)nc(N4CCOCC4)c3s2)CC1 [Pictilisib] + Nc1ncn([C@H]2C[C@H](O)[C@@H](CO)O2)c(=O)n1 [Decitabine] (partner 2 µM)
Summary of the method: as §1

MK-2206 + OSI-027 = compound: NC1(c2ccc(-c3nc4ccn5c(=O)[nH]nc5c4cc3-c3ccccc3)cc2)CCC1 [MK-2206] + COc1cccc2cc(-c3nc([C@H]4CC[C@H](C(=O)O)CC4)n4ncnc(N)c34)[nH]c12 [OSI-027] (partner 0.5 µM)
Summary of the method: as §1

Cell Line	relative viability (Pictilisib + Trametinib; first compound 0.02 µM)	relative viability (Pictilisib + Trametinib; first compound 0.06325 µM)	relative viability (Pictilisib + Trametinib; first compound 0.6325 µM)	relative viability (Pictilisib + Trametinib; first compound 2 µM)	relative viability (Pictilisib + Luminespib; first compound 0.02 µM)	relative viability (Pictilisib + Luminespib; first compound 0.06325 µM)	relative viability (Pictilisib + Luminespib; first compound 0.6325 µM)	relative viability (Pictilisib + Luminespib; first compound 2 µM)	relative viability (Pictilisib + Crizotinib; first compound 0.02 µM)	relative viability (Pictilisib + Crizotinib; first compound 0.06325 µM)	relative viability (Pictilisib + Crizotinib; first compound 0.6325 µM)	relative viability (Pictilisib + Crizotinib; first compound 2 µM)	relative viability (Pictilisib + Decitabine; first compound 0.02 µM)	relative viability (Pictilisib + Decitabine; first compound 0.06325 µM)	relative viability (Pictilisib + Decitabine; first compound 0.6325 µM)	relative viability (Pictilisib + Decitabine; first compound 2 µM)	relative viability (MK-2206 + OSI-027; first compound 0.01 µM)	relative viability (MK-2206 + OSI-027; first compound 0.03162 µM)	relative viability (MK-2206 + OSI-027; first compound 0.3162 µM)	relative viability (MK-2206 + OSI-027; first compound 1 µM)
A-427	0.733	0.716	0.505	0.287	0.864	0.97	0.855	0.724	0.979	0.829	0.908	0.603	0.579	0.492	0.486	0.453	0.529	0.47	0.439	0.372
NCI-H460	0.157	0.215	0.0736	0.0266	0.0289	0.0281	0.0266	0.019	0.956	0.945	0.501	0.0993	0.528	0.558	0.301	0.109	0.642	0.521	0.321	0.455
NCI-H23	0.367	0.319	0.241	0.163	0.203	0.219	0.198	0.203	0.424	0.592	0.344	0.354	0.305	0.333	0.309	0.271	0.646	0.503	0.455	0.337
LOU-NH91	0.867	0.715	0.68	0.567	0.347	0.338	0.321	0.274	0.725	0.708	0.716	0.571	0.827	0.829	0.771	0.7	0.72	0.695	0.668	0.555
NCI-H2009	0.36	0.277	0.167	0.116	1.01	1.05	1.04	0.773	1.02	1.02	1.04	0.705	0.443	0.406	0.412	0.329	0.63	0.582	0.497	0.399
NCI-H358	0.132	0.141	0.122	0.104	0.382	0.348	0.161	0.146	0.658	0.455	0.607	0.408	0.199	0.199	0.18	0.115	0.819	0.765	0.531	0.487
NCI-H2126	0.532	0.531	0.378	0.278	0.847	0.852	0.646	0.421	0.998	0.988	0.972	0.688	0.559	0.57	0.473	0.494	0.709	0.683	0.567	0.48
ChaGo-K-1	0.813	0.873	0.79	0.631	0.663	0.63	0.502	0.499	1.17	1.21	1.08	0.947	0.526	0.51	0.491	0.495	0.575	0.631	0.477	0.463
NCI-H1437	0.472	0.418	0.289	0.194	1.14	1.16	1.25	1.19	0.941	0.952	1.03	0.652	0.499	0.534	0.536	0.438	0.91	0.844	0.746	0.675
SK-LU-1	0.459	0.47	0.355	0.32	0.227	0.193	0.168	0.178	0.957	1.17	0.945	0.697	0.612	0.695	0.559	0.525	0.349	0.325	0.224	0.325
NCI-H838	0.431	0.453	0.374	0.246	0.332	0.262	0.241	0.258	0.871	0.795	0.76	0.497	0.474	0.492	0.381	0.371	0.484	0.397	0.327	0.366
NCI-H1755	0.821	0.667	0.718	0.327	0.412	0.384	0.305	0.189	0.848	0.829	0.827	0.546	0.743	0.667	0.748	0.565	0.76	0.723	0.509	0.6
NCI-H1915	0.322	0.295	0.285	0.244	0.784	0.864	0.699	0.642	0.855	1	0.889	0.898	0.259	0.251	0.259	0.283	0.646	0.693	0.606	0.496
NCI-H2347	0.271	0.269	0.25	0.24	0.444	0.518	0.423	0.264	0.695	0.496	0.592	0.545	0.663	0.658	0.579	0.502	0.384	0.375	0.413	0.277
HARA	0.626	0.715	0.479	0.129	0.767	0.622	0.113	0.166	1.05	1.15	0.972	0.722	0.605	0.64	0.453	0.307	0.536	0.564	0.304	0.194
